Reference: PubChem BioAssay AID1996
Converted amounts (≈) assume the structure as drawn.

Details: buffer; pH 7.4; 200.0 µM

Compound	solubility kinetic
Cc1ccc(Cl)cc1NC(=O)C1COc2ccccc2O1 (stereo not given)	< 0.7 µg/mL
CC(C)CC(=O)Nc1ccc2c(c1)nc(CCN1CCCCC1)n2C	> 51.4 µg/mL
Cc1cc(C)nc(SCC(=O)c2ccc(F)c(C)c2)n1	14.7 µg/mL (≈ 50.6 µM)
Nc1nc(SCC(=O)N2CCCC2)[nH]c(=O)c1NC(=O)c1cccs1	> 56.9 µg/mL
O=C(Nc1nccs1)c1ccc(Cl)nc1	> 36 µg/mL
COc1ccc(C2SCC(=O)N2c2ccc(OC)cc2)cc1 (stereo not given)	45.7 µg/mL (≈ 145 µM)
CNC(=S)N1C2CCCC1CC(NC(=O)c1ccc(F)cc1)C2 (stereo not given)	21.8 µg/mL (≈ 65 µM)
O=C(NCC(=O)N1CCN(Cc2ccccc2)CC1)c1cccs1	> 51.5 µg/mL
CN(C(=O)c1ccnn1C)C1CCCN(Cc2ccccc2F)C1 (stereo not given)	> 49.6 µg/mL
Cc1ccc(-c2nc3ncccc3o2)cc1NC(=O)C(C)C	25.3 µg/mL (≈ 85.7 µM)
COCCCNC(=S)NCCc1ccc(F)cc1	> 40.6 µg/mL
Cc1cccc(C(=O)OCC(=O)Nc2ccc3c(c2)OCCO3)c1	8.2 µg/mL (≈ 25.1 µM)
CCCn1c(Oc2ccccc2)nc2c1c(=O)n(C)c(=O)n2C	45 µg/mL (≈ 143 µM)
CCOc1ccccc1NC(=S)NC(=O)c1ccco1	1.9 µg/mL (≈ 6.54 µM)
Cc1cc(NC(=O)COC(=O)CC2CCCC2)c([N+](=O)[O-])cc1C	3 µg/mL (≈ 8.97 µM)
O=C(/C=C/c1ccc(Cl)cc1)Nc1ccc(N2CCOCC2)cc1	< 0.4 µg/mL
Cc1ccc(Cl)c(OCC(=O)OCC(=O)c2ccc[nH]2)c1	8.7 µg/mL (≈ 28.3 µM)
Fc1ccc(Nc2c3c(nc4ccccc24)CCC3)cc1	33.1 µg/mL (≈ 119 µM)
COc1ccc(CN(C)C(C)C(=O)Nc2cccc3ccccc23)cc1 (stereo not given)	7.8 µg/mL (≈ 22.4 µM)
Cc1cccc(/C=C(\C(=O)O)c2ccc(S(=O)(=O)N3CCCC3)s2)c1	> 56.6 µg/mL

Compound	solubility kinetic
CCOC(=O)c1csc(COc2ccc(OC)cc2)n1	11.3 µg/mL (≈ 38.5 µM)
CCOC(=O)c1c[nH]c2ccc3ccccc3c2c1=O	10.3 µg/mL (≈ 38.5 µM)
CN(Cc1ccccc1)S(=O)(=O)c1ccc(Cl)c(C(=O)O)c1	> 51 µg/mL
Nc1ccccc1Sc1c[nH]c2ccccc12	27.8 µg/mL (≈ 116 µM)
O=C1CN(C(=O)COC(=O)CCS(=O)(=O)c2ccccc2Cl)c2ccccc2N1	> 65.5 µg/mL
O=C(O)c1nc(NCc2ccccc2)ncc1Cl	> 39.6 µg/mL
O=C1CC(N2CCOCC2)C(=O)N1c1ccc(Cl)cc1 (stereo not given)	> 44.2 µg/mL
Cc1c(Cl)cn2c(=O)cc(CN3CCN(c4ccc(F)cc4)CC3)nc2c1Cl	5 µg/mL (≈ 11.9 µM)
COc1ccccc1NC(=O)c1cnc(SC)nc1	> 41.3 µg/mL
CN(C)c1cccc(Oc2nc3c(c(=O)n(C)c(=O)n3C)n2C)c1	32.4 µg/mL (≈ 98.4 µM)
CC(C)=CC(=O)OCc1csc(CC(=O)Nc2ccccc2C)n1	> 51.7 µg/mL
CCOC(=O)C1CCN(S(=O)(=O)c2ccc(-c3ccccn3)s2)CC1	3.9 µg/mL (≈ 10.2 µM)
Cc1cccc(Cl)c1NC(=S)NCCc1ccccn1	> 45.9 µg/mL
CCOC(=O)C1CCN(C/C=C/c2ccccc2)CC1	27.2 µg/mL (≈ 99.5 µM)
CCOC(=O)C1=C(O)/C(=C/c2cc(C)n(-c3ccccc3)c2C)N=C1C	30.7 µg/mL (≈ 87.6 µM)
Cn1c(SCC(=O)NC2CCCC2)nc2c(c1=O)SCC2	> 48.8 µg/mL
CC1Cc2ccccc2N1C(=O)CSc1ncccn1 (stereo not given)	> 42.8 µg/mL
COCCCNC(=O)c1cc2cc3cc(OC)ccc3nc2o1	> 47.2 µg/mL
COc1ccc(C(=O)CC(=O)C(=O)Nc2ccccc2)cc1	34.6 µg/mL (≈ 116 µM)
CN(CC(=O)NCCCn1ccnc1)S(=O)(=O)c1ccc(Cl)cc1	> 55.6 µg/mL

Compound	solubility kinetic
CCOc1ccc(-c2nc[nH]c2[N+](=O)[O-])cc1	1.7 µg/mL (≈ 7.29 µM)
CCOC(=O)C1=C(C)N(C)C(=O)NC1c1ccc2c(c1)OCO2 (stereo not given)	> 47.7 µg/mL
Cc1ccc(NC(=O)COC(=O)CC2CCCC2)cc1F	29.5 µg/mL (≈ 101 µM)
COc1ccc(NC(=O)CSc2cc(C)ccc2C)cn1	45.1 µg/mL (≈ 149 µM)
CCOC(=O)N1CCc2c(sc(NC(=O)CN3CCOCC3)c2C#N)C1	48.5 µg/mL (≈ 128 µM)
CCCCNC(=O)COCc1cc(-c2ccc3c(c2)OCO3)on1	19.5 µg/mL (≈ 58.7 µM)
O=C1CCCN1c1ccc(S(=O)(=O)N2CCCCC2)cc1	22.5 µg/mL (≈ 73 µM)
CC(CNC(=O)c1ccc(N)cc1)NC(=O)c1ccc(N)cc1 (stereo not given)	42.8 µg/mL (≈ 137 µM)
CC(C)Cc1ccc(C(C)C(N)=NCCc2ccccc2)cc1.Cl (stereo not given)	51.3 µg/mL
Cn1c(C(=O)O)ccc1S(=O)(=O)N1CCCCCC1	> 43 µg/mL
Cc1cc(C)c(C)c(S(=O)(=O)NCCCN2CCOCC2)c1C	> 51.1 µg/mL
Cc1ccc(NC(=S)NC(=O)C2CCC2)cc1C	3.3 µg/mL (≈ 12.6 µM)
S=C1N[C@H]2CCCC[C@@H]2N1	20.8 µg/mL (≈ 133 µM)
Cc1ccc(F)cc1NC(=O)N1CCCN(C(=O)OC(C)(C)C)CC1	46.9 µg/mL (≈ 133 µM)
NS(=O)(=O)c1ccc(NC(=O)CN2C(=O)CCC2=O)cc1	> 46.7 µg/mL
Cc1nn(CC(=O)N(C)C2(C#N)CCCCC2)c(C)c1[N+](=O)[O-]	> 47.9 µg/mL
COc1cc(C(=O)NCCNC(=O)c2cnccn2)cc(OC)c1OC	39.4 µg/mL (≈ 109 µM)
O=C(O)c1cc(S(=O)(=O)N2CCCCC2)ccc1N1CCCC1	> 50.8 µg/mL
N#C/C(=C\c1cccnc1)C(=O)Nc1cccc(Cl)c1	10 µg/mL (≈ 35.2 µM)
S=C(Nc1ccccc1)Nc1ccccc1Br	16.4 µg/mL (≈ 53.4 µM)
